Test results reported in BindingDB's records for patent US20250099442 (Prothena Biosciences, 2025).

Biological target: Dual specificity tyrosine-phosphorylation-regulated kinase 1A (Homo sapiens, UniProt Q13627)
Test: DYRK1A Inhibition Assay
Procedure: Assay Procedure1. Add 5 μL enzyme & substrate mixture to each well in Column 2-23 and A24-H24 wells of the 384-well assay plate;2. Add 5 μL 0% Phosphorylation control to A1-H1 and I24-P24 wells of the assay plate;3. Add 5 μL 100% Phosphorylation control to I1-P1 wells of the assay plate;4. Spin the assay plate (1000 rpm, 1 minute @23° C.);5. Incubate enzyme with compounds for 15 minutes at 23° C.;6. Add 5 μL ATP solution to each well of the assay plate;7. Spin the plate (1000 rpm, 1 minute @23° C.);8. Incubate the assay plate for 90 minutes at 23° C.;9. Add 10 μL Development reagent A to each well of the assay plate;10. Centrifuge the plate at 1000 rpm about 15 seconds and seal a film over assay plate. Incubate the assay plate for 30 minutes at 23° C.11. Read assay plates on Envision

Row | SMILES | IC50 [nM]
1 | c1cc(-c2c[nH]c3cnccc23)ccn1 [US20250099442, Compound I.1] | 10 to 100
2 | CC(C)n1cc(-c2ccncc2)c2ccncc21 [US20250099442, Compound I.2] | < 10
3 | CC(C)CN1CCC(C(=O)Nc2cc(-c3c[nH]c4cnccc34)ccn2)CC1 [US20250099442, Compound I.3] | < 10
4 | CC(C)CN1CCC(C(=O)Nc2cc(-c3cn(C(C)C)c4cnccc34)ccn2)CC1 [US20250099442, Compound I.4] | < 10
5 | CC(C)CN1CCC(CNc2cc(-c3c[nH]c4cnccc34)ccn2)CC1 [US20250099442, Compound I.5] | 10 to 100
6 | CC(C)CN1CCC(CNc2cc(-c3cn(C(C)C)c4cnccc34)ccn2)CC1 [US20250099442, Compound I.6] | 10 to 100
7 | CC(C)CN1CCC(C(=O)Nc2nccc(-c3cn(C(C)C)c4cnccc34)n2)CC1 [US20250099442, Compound I.8] | 10 to 100
8 | CC(C)CN1CCC(CNc2nccc(-c3cn(C(C)C)c4cnccc34)n2)CC1 [US20250099442, Compound I.9] | 100 to 1000
9 | c1ccc(Oc2cc(-c3ccc4c(c3)CCO4)ccn2)cc1 [US20250099442, Compound I.10] | > 1000
10 | c1cncc(-c2cc3c(-c4ccc5c(c4)CCO5)cncc3o2)c1 [US20250099442, Compound I.11] | > 1000
11 | COc1cccc(-c2nc3cc(NS(C)(=O)=O)cnc3s2)c1 [US20250099442, Compound I.12] | > 1000
12 | CS(=O)(=O)Nc1cnc2sc(-c3cccc(O)c3)nc2c1 [US20250099442, Compound I.13] | > 1000
13 | CN1CCC(C(=O)Nc2nc3ccc(-c4ccncc4)cc3s2)CC1 [US20250099442, Compound I.14] | < 10
14 | NC(=O)c1ccc(-c2cnc3[nH]cc(C4CCC4)c3c2)cc1 [US20250099442, Compound I.15] | 100 to 1000
15 | c1cc(-c2cnc3[nH]cc(C4CCC4)c3c2)ccn1 [US20250099442, Compound I.16] | > 1000
16 | CC(C)CN1CCC(C(=O)Nc2cc(-c3ccc4c(cnn4C)c3)ccn2)CC1 [US20250099442, Compound I.17] | 10 to 100
17 | CC(C)CN1CCC(C(=O)Nc2cc(-c3ccc4nn(C)cc4c3)ccn2)CC1 [US20250099442, Compound I.18] | 10 to 100
18 | c1cc(-c2ccc3ncn(C4CCCNC4)c3c2)ccn1 (stereo unspecified) [US20250099442, Compound I.19] | 10 to 100
19 | CS(=O)(=O)N1CCC[C@@H](n2cnc3ccc(-c4ccncc4)cc32)C1 [US20250099442, Compound I.22] | 100 to 1000
20 | CC(=O)N1CCCC(n2cnc3ccc(-c4ccncc4)cc32)C1 (stereo unspecified) [US20250099442, Compound I.23] | 100 to 1000
21 | Cn1nc2cnccc2c1-c1ccnc(NC(=O)C2CC2)c1 [US20250099442, Compound I.25] | > 1000
22 | COCCn1nc2cnccc2c1-c1ccnc(NC(=O)C2CC2)c1 [US20250099442, Compound I.26] | > 1000
23 | c1cc(Cc2cnc3ccc(-c4ccncc4)cn23)c2cn[nH]c2c1 [US20250099442, Compound I.28] | 100 to 1000
24 | O=C(OCc1ccccc1)N1CCC(n2cnc3ccc(-c4ccncc4)cc32)CC1 [US20250099442, Compound I.30] | 10 to 100

Row | SMILES | IC50 [nM]
25 | c1cc(-c2ccc3ncn(C4CCNCC4)c3c2)ccn1 [US20250099442, Compound I.31] | 100 to 1000
26 | CS(=O)(=O)N1CCC(n2cnc3ccc(-c4ccncc4)cc32)CC1 [US20250099442, Compound I.32] | 10 to 100
27 | N#Cc1ccc(S(=O)(=O)N2CCCC(n3cnc4ccc(-c5ccncc5)cc43)C2)cc1 (stereo unspecified) [US20250099442, Compound I.33] | 100 to 1000
28 | CN1CCC(C(=O)Nc2cc(-c3ccc4c(c3)ncn4C)ccn2)CC1 [US20250099442, Compound I.34] | < 10
29 | Fc1ccc(COc2cc(-c3ccc4c(c3)CCO4)ccn2)cc1F [US20250099442, Compound I.35] | > 1000
30 | c1cc(-c2ccc3c(c2)CCO3)cc(OCC2CCCCN2)n1 (stereo unspecified) [US20250099442, Compound I.36] | 100 to 1000
31 | Cn1ncc2ccc(-c3cncc(O[C@@H]4Cc5ccccc5[C@@H]4N)c3)cc21 [US20250099442, Compound I.37] | 100 to 1000
32 | CC(=O)N1CCC(n2cnc3ccc(-c4ccncc4)cc32)CC1 [US20250099442, Compound I.38] | 10 to 100
33 | O=S(=O)(c1ccc(F)cc1)N1CCCC(n2cnc3ccc(-c4ccncc4)cc32)C1 (stereo unspecified) [US20250099442, Compound I.39] | 100 to 1000
34 | CN1CCC(C(=O)Nc2cn3cc(-c4ccncc4)ccc3n2)CC1 [US20250099442, Compound I.42] | < 10
35 | COc1cc(-c2ccc3nc(NC(=O)C4C5CC4CN(C)C5)sc3c2)ccn1 (stereo unspecified) [US20250099442, Compound I.43] | 10 to 100
36 | CN1CC(C(=O)Nc2nc3ccc(-c4ccncc4)cc3s2)C1 [US20250099442, Compound I.45] | 10 to 100
37 | COc1cc(-c2ccc3nc(NC(=O)C4CN(C)C4)sc3c2)ccn1 [US20250099442, Compound I.46] | 10 to 100
38 | c1cc(-c2ccc3nc4n(c3c2)CCNC4)ccn1 [US20250099442, Compound I.48] | 100 to 1000
39 | CN1CCC(N2CCn3c(nc4ccc(-c5ccncc5)cc43)C2)CC1 [US20250099442, Compound I.49] | 10 to 100
40 | CN1CCn2c(nc3ccc(-c4ccncc4)cc32)C1 [US20250099442, Compound I.50] | > 1000
41 | CN1CCC(C(=O)Nc2nc3ccc(-c4ccncc4)nc3s2)CC1 [US20250099442, Compound I.51] | < 10
42 | CN1CC2CC(C1)C2C(=O)Nc1nc2ccc(-c3ccncc3)cc2s1 (stereo unspecified) [US20250099442, Compound I.52] | 100 to 1000
43 | CN1CCC(C(=O)Nc2cc(-c3cc(=O)n(C)c4ccccc34)ccn2)CC1 [US20250099442, Compound I.55] | 10 to 100
44 | CN1CCC(C(=O)Nc2cc(-c3cc(Cl)cc4ncccc34)ccn2)CC1 [US20250099442, Compound I.56] | 100 to 1000
45 | Cc1cc(-c2ccnc(NC(=O)C3CCN(C)CC3)c2)c2ocnc2c1 [US20250099442, Compound I.57] | 100 to 1000
46 | CN1CCC(C(=O)Nc2cc3cc(-c4ccncc4)cn3cn2)CC1 [US20250099442, Compound I.58] | 10 to 100
47 | CN1CCC(C(=O)Nc2cn3cc(-c4ccncc4)cc3cn2)CC1 [US20250099442, Compound I.59] | 10 to 100
48 | COc1cc(-c2ccnc(NC(=O)C3CCN(C)CC3)c2)cc2cnccc12 [US20250099442, Compound I.60] | 10 to 100

Row | SMILES | IC50 [nM]
49 | CCOc1cc(-c2ccc3nc(NC(=O)[C@H]4CCCN(C)C4)sc3c2)ccn1 [US20250099442, Compound I.61] | 100 to 1000
50 | O=C(Nc1cc2cc(-c3ccncc3)cn2cn1)C1CCOCC1 [US20250099442, Compound I.63] | 10 to 100
51 | CN1CCC(C(=O)N2CCn3c(nc4ccc(-c5ccncc5)cc43)C2)CC1 [US20250099442, Compound I.64] | 10 to 100
52 | C[C@@H]1CC(C(=O)Nc2cn3cc(-c4ccncc4)ccc3n2)C[C@H](C)N1 (stereo partly specified) [US20250099442, Compound I.65] | 10 to 100
53 | C[C@@H]1CC(C(=O)Nc2cn3cc(-c4ccncc4)ccc3n2)C[C@H](C)N1C (stereo partly specified) [US20250099442, Compound I.66] | 10 to 100
54 | CN1CCC(C(=O)Nc2ccc3c(-c4ccncc4)c[nH]c3n2)CC1 [US20250099442, Compound I.67] | < 10
55 | CN1C2CCC1CC(C(=O)Nc1nc3ccc(-c4ccncc4)nc3s1)C2 (stereo unspecified) [US20250099442, Compound I.69] | < 10
56 | CN1C[C@@H]2C(C(=O)Nc3nc4ccc(-c5cccnc5)nc4s3)[C@@H]2C1 (stereo partly specified) [US20250099442, Compound I.70] | 100 to 1000
57 | COc1cc(-c2ccc3nc(NC(=O)c4cccc(C#N)c4)sc3n2)ccn1 [US20250099442, Compound I.71] | < 10
58 | CN1CC2C(C1)C2C(=O)Nc1cc2cc(-c3ccncc3)cn2cn1 (stereo unspecified) [US20250099442, Compound I.72] | 10 to 100
59 | Cc1c(-c2ccncc2)cn2cnc(NC(=O)C3[C@H]4CN(C)C[C@@H]34)cc12 (stereo partly specified) [US20250099442, Compound I.73] | 10 to 100
60 | Cc1c(-c2ccncc2)cn2cnc(NC(=O)C3C4CNCC43)cc12 (stereo unspecified) [US20250099442, Compound I.74] | 10 to 100
61 | Cc1c(C#CC2CCOCC2)nc2ccc(-c3ccncc3)cn12 [US20250099442, Compound I.76] | 10 to 100
62 | O=C(O)c1ccc(-c2cnc3n2CCN(c2cccnc2)C3)cc1 [US20250099442, Compound I.78] | 100 to 1000
63 | Cc1cc(-c2cnn3cc(-c4ccc5cnccc5c4)n(C)c(=O)c23)ccn1 [US20250099442, Compound I.80] | 100 to 1000
64 | O=C(O)c1ccc(-c2cnc3n2CC(=O)N(C2CCOCC2)C3)cc1 [US20250099442, Compound I.81] | > 1000
65 | COc1ccc(CN2Cc3ncc(-c4ccc(C#N)cc4)n3CC2=O)cc1 [US20250099442, Compound I.82] | > 1000
66 | c1cc(-c2ccc3ncsc3c2)c(OC2CCC2)cn1 [US20250099442, Compound I.83] | 100 to 1000
67 | Cc1cc(-c2cn3ncc(-c4ccc(O)c(C#N)c4)c3c(=O)n2C)ccn1 [US20250099442, Compound I.84] | 10 to 100
68 | CCCOc1cc(COC2CCN(C)CC2)nc2[nH]cc(-c3ccncc3)c12 [US20250099442, Compound I.85] | 10 to 100
69 | c1cncc(-c2ccc3cncc(OC4CCNC4)c3c2)c1 (stereo unspecified) [US20250099442, Compound I.87] | 100 to 1000
70 | CN1CCC(Oc2cnc3[nH]cc(-c4cc[nH]c(=O)c4)c3n2)C1 (stereo unspecified) [US20250099442, Compound I.88] | 100 to 1000
71 | CN1CCC(C2CN(c3ncc(-c4ccncc4)c4c3C(=O)NC4)C2)CC1 [US20250099442, Compound I.89] | > 1000
